Data from PubChem BioAssay AID248 (DTP/NCI, 2004).
Inconclusive results and toxic doses are left out. Rule as the data show it: active = T/C of 150% or more; inactive = T/C below 125%.

Test system: L1210 leukemia ip in BDF1 mice, survival T/C
Assay: NCI In Vivo Anticancer Drug Screen. Data for tumor model L1210 Leukemia (intraperitoneal) in B6D2F1 (BDF1) mice
Details: endpoint: mean survival time, higher = longer survival
How it was run: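 Ratio derived from survival: compound-dosed mice over vehicle-dosed mice, all bearing a transplantable tumor.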

[1] = dose: 100.0 mg/kg/injection, schedule: Q01DX009 (ip), vehicle: saline with Tween-80
[2] = dose: 100.0 mg/kg/injection, schedule: Q04DX003 (ip), vehicle: saline
[3] = dose: 100.0 mg/kg/injection, schedule: Q01DX001 (ip), vehicle: saline
[4] = dose: 200.0 mg/kg/injection, schedule: Q01DX001 (ip), vehicle: saline
[5] = dose: 400.0 mg/kg/injection, schedule: Q01DX001 (ip), vehicle: saline
[6] = dose: 100.0 mg/kg/injection, schedule: Q04DX003 (ip), vehicle: Klucel (hydroxypropylcellulose) (HPC)
[7] = dose: 200.0 mg/kg/injection, schedule: Q04DX003 (ip), vehicle: Klucel (hydroxypropylcellulose) (HPC)
[8] = dose: 400.0 mg/kg/injection, schedule: Q04DX003 (ip), vehicle: Klucel (hydroxypropylcellulose) (HPC)
[9] = dose: 100.0 mg/kg/injection, schedule: Q01DX009 (ip), vehicle: Klucel (hydroxypropylcellulose) (HPC)
[10] = dose: 200.0 mg/kg/injection, schedule: Q01DX009 (ip), vehicle: Klucel (hydroxypropylcellulose) (HPC)
[11] = dose: 400.0 mg/kg/injection, schedule: Q01DX009 (ip), vehicle: Klucel (hydroxypropylcellulose) (HPC)

Measured: T/C

CC12CC(=O)OC1(C)C1CCC2C1 (stereo not drawn)
inactive: dose: 6.25 mg/kg/injection, schedule: Q01DX009 (ip), vehicle: acetone 111 % of control | dose: 6.25 mg/kg/injection, schedule: Q04DX003 (ip), vehicle: acetone 101 % of control | dose: 12.5 mg/kg/injection, schedule: Q01DX001 (ip), vehicle: acetone 96 % of control | dose: 12.5 mg/kg/injection, schedule: Q01DX009 (ip), vehicle: acetone 92 % of control | dose: 12.5 mg/kg/injection, schedule: Q04DX003 (ip), vehicle: acetone 101 % of control | dose: 25.0 mg/kg/injection, schedule: Q01DX001 (ip), vehicle: acetone 112 % of control | dose: 25.0 mg/kg/injection, schedule: Q04DX003 (ip), vehicle: acetone 97 % of control

COc1ccc(OC)c(CCN)c1
inactive: dose: 25.0 mg/kg/injection, schedule: Q01DX009 (ip), vehicle: saline with Tween-80 98 % of control | dose: 50.0 mg/kg/injection, schedule: Q01DX009 (ip), vehicle: saline with Tween-80 105 % of control | [1] 104 % of control | [2] 107 % of control

COc1ccc2c(c1)CC[C@@H]1[C@@H]2CC[C@]2(C)/C(=N\O)CC[C@@H]12
inactive: dose: 100.0 mg/kg/injection, schedule: Q01DX001 (sc), vehicle: steriod suspending solution 100 % of control | dose: 100.0 mg/kg/injection, schedule: Q04DX003 (ip), vehicle: steriod suspending solution 102 % of control | dose: 200.0 mg/kg/injection, schedule: Q01DX001 (sc), vehicle: steriod suspending solution 100 % of control | dose: 200.0 mg/kg/injection, schedule: Q04DX003 (ip), vehicle: steriod suspending solution 100 % of control | dose: 400.0 mg/kg/injection, schedule: Q01DX001 (sc), vehicle: steriod suspending solution 97 % of control | dose: 400.0 mg/kg/injection, schedule: Q04DX003 (ip), vehicle: steriod suspending solution 97 % of control

C(=N\Nc1c2ccccc2nc2ccccc12)/c1ccc2c(c1)OCO2
inactive: [3] 89 % of control | [4] 100 % of control | [5] 89 % of control

c1ccc2c(N=NSc3ncnc4nc[nH]c34)c3ccccc3nc2c1
inactive: dose: 5.0 mg/kg/injection, schedule: Q01DX001 (ip), vehicle: carboxymethylcellulose (CMC) 105 % of control | dose: 10.0 mg/kg/injection, schedule: Q01DX001 (ip), vehicle: carboxymethylcellulose (CMC) 115 % of control | dose: 20.0 mg/kg/injection, schedule: Q01DX001 (ip), vehicle: carboxymethylcellulose (CMC) 98 % of control | dose: 40.0 mg/kg/injection, schedule: Q01DX001 (ip), vehicle: carboxymethylcellulose (CMC) 107 % of control

CCOC(C)(C)C
inactive: [3] 97 % of control | [4] 103 % of control | [5] 106 % of control

CCN(CC)CC(=O)NCC(CCCCN1CCCCC1)(c1cccc2ccccc12)C(C)C (stereo not drawn)
inactive: dose: 12.5 mg/kg/injection, schedule: Q04DX003 (ip), vehicle: saline 104 % of control | dose: 25.0 mg/kg/injection, schedule: Q04DX003 (ip), vehicle: saline 102 % of control | dose: 50.0 mg/kg/injection, schedule: Q04DX003 (ip), vehicle: saline 102 % of control

O=C1CCCNc2ccccc21
inactive: [1] 98 % of control | [6] 93 % of control | dose: 200.0 mg/kg/injection, schedule: Q01DX009 (ip), vehicle: saline with Tween-80 110 % of control | [7] 106 % of control | dose: 400.0 mg/kg/injection, schedule: Q01DX009 (ip), vehicle: saline with Tween-80 93 % of control | [8] 98 % of control

COC(=O)C1C2CC(C3OC23)C1C(=O)OC (stereo not drawn)
inactive: dose: 100.0 mg/kg/injection, schedule: Q01DX009 (ip), vehicle: other 110 % of control | dose: 200.0 mg/kg/injection, schedule: Q01DX009 (ip), vehicle: other 108 % of control | dose: 400.0 mg/kg/injection, schedule: Q01DX009 (ip), vehicle: other 93 % of control

c1ccc(CNCC(NCc2ccccc2)c2ccccc2)cc1 (stereo not drawn)
inactive: [6] 91 % of control | dose: 100.0 mg/kg/injection, schedule: Q04DX003 (ip), vehicle: saline with Tween-80 93 % of control | [7] 93 % of control | dose: 200.0 mg/kg/injection, schedule: Q04DX003 (ip), vehicle: saline with Tween-80 97 % of control | [8] 98 % of control | dose: 400.0 mg/kg/injection, schedule: Q04DX003 (ip), vehicle: saline with Tween-80 88 % of control

CC(=O)OCC1C2c3ccccc3C(c3ccccc32)C1CBr (stereo not drawn)
inactive: [9] 91 % of control | [6] 93 % of control | [10] 94 % of control | [7] 94 % of control | [11] 88 % of control | [8] 98 % of control

CC(=O)Nc1ccc(OCCCCOc2ccccc2)cc1
inactive: [9] 87 % of control | [6] 103 % of control | [10] 97 % of control | [7] 100 % of control | [11] 92 % of control | [8] 97 % of control

Cc1cc(N(CCOS(C)(=O)=O)CCOS(C)(=O)=O)ccc1C=Nc1cccc(Cl)c1
inactive: dose: 20.0 mg/kg/injection, schedule: Q04DX003 (ip), vehicle: Klucel (hydroxypropylcellulose) (HPC) 107 % of control | dose: 40.0 mg/kg/injection, schedule: Q04DX003 (ip), vehicle: Klucel (hydroxypropylcellulose) (HPC) 115 % of control | dose: 80.0 mg/kg/injection, schedule: Q04DX003 (ip), vehicle: Klucel (hydroxypropylcellulose) (HPC) 107 % of control | [6] 120 % of control

CCCN=C(N)c1ccc(NC(=O)c2ccc(C(=O)Nc3ccc(C(N)=NCCC)cc3)c(Cl)c2)cc1
inactive: dose: 1.25 mg/kg/injection, schedule: Q01DX Z (ip), vehicle: water 98 % of control | dose: 2.5 mg/kg/injection, schedule: Q01DX Z (ip), vehicle: water 101 % of control | dose: 13.0 mg/kg/injection, schedule: Q01DX Z (ip), vehicle: carboxymethylcellulose (CMC) 121 % of control | dose: 62.0 mg/kg/injection, schedule: Q01DX Z (oral), vehicle: water 104 % of control | dose: 125.0 mg/kg/injection, schedule: Q01DX Z (oral), vehicle: water 110 % of control | dose: 250.0 mg/kg/injection, schedule: Q01DX Z (oral), vehicle: water 104 % of control | dose: 500.0 mg/kg/injection, schedule: Q01DX Z (oral), vehicle: water 104 % of control
active: dose: 6.5 mg/kg/injection, schedule: Q01DX Z (ip), vehicle: carboxymethylcellulose (CMC) 155 % of control

O=C(c1ccccc1)c1ccc(-c2ccccc2)cc1
inactive: dose: 87.5 mg/kg/injection, schedule: Q04DX003 (ip), vehicle: Klucel (hydroxypropylcellulose) (HPC) 97 % of control | dose: 175.0 mg/kg/injection, schedule: Q04DX003 (ip), vehicle: Klucel (hydroxypropylcellulose) (HPC) 95 % of control | dose: 350.0 mg/kg/injection, schedule: Q04DX003 (ip), vehicle: Klucel (hydroxypropylcellulose) (HPC) 97 % of control

CC(C1=C(CCN(C)C)Cc2ccccc21)c1ccccn1 (stereo not drawn)
inactive: [3] 107 % of control

CCCCCCOC(=O)c1cccc2c1-c1ccccc1C2=O
inactive: dose: 100.0 mg/kg/injection, schedule: Q01DX001 (ip), vehicle: carboxymethylcellulose (CMC) 93 % of control | dose: 200.0 mg/kg/injection, schedule: Q01DX001 (ip), vehicle: carboxymethylcellulose (CMC) 93 % of control | dose: 400.0 mg/kg/injection, schedule: Q01DX001 (ip), vehicle: carboxymethylcellulose (CMC) 98 % of control

CCCCCCCCNP(=S)(NCCCCCCCC)NCCCCCCCC
inactive: dose: 50.0 mg/kg/injection, schedule: Q01DX001 (ip), vehicle: other 105 % of control | dose: 100.0 mg/kg/injection, schedule: Q01DX001 (ip), vehicle: other 96 % of control | dose: 200.0 mg/kg/injection, schedule: Q01DX001 (ip), vehicle: other 96 % of control | dose: 400.0 mg/kg/injection, schedule: Q01DX001 (ip), vehicle: other 94 % of control

COC(=O)c1cc(Cl)cc(C(=O)OC)n1
inactive: [2] 100 % of control | dose: 200.0 mg/kg/injection, schedule: Q01DX009 (ip), vehicle: saline 94 % of control | dose: 200.0 mg/kg/injection, schedule: Q04DX003 (ip), vehicle: saline 103 % of control | dose: 400.0 mg/kg/injection, schedule: Q01DX009 (ip), vehicle: saline 100 % of control | dose: 400.0 mg/kg/injection, schedule: Q04DX003 (ip), vehicle: saline 99 % of control

CCN(CC)CCOC(=O)c1ccc(OCCOc2ccc(C(C)(C)CC(C)(C)C)cc2)c([N+](=O)[O-])c1
inactive: dose: 100.0 mg/kg/injection, schedule: Q04DX003 (ip), vehicle: saline sonified 96 % of control | dose: 200.0 mg/kg/injection, schedule: Q04DX003 (ip), vehicle: saline sonified 87 % of control | dose: 400.0 mg/kg/injection, schedule: Q04DX003 (ip), vehicle: saline sonified 98 % of control
